# Patent US12122785B2, “Substituted pyridines, pyridazines, pyrimidines, and 1,2,4-triazines as TYK2 inhibitors” (Sudo Biosciences Limited, priority 2021, dated 2024)
# Columns and labels:
# TYK2 kinase domain (JH1) = molecular target: T1, TYK2 kinase domain (JH1) (Homo sapiens, UniProt P29597); experiment: HTRF-based selectivity assay, TYK2 catalytic domain; format: biochemical; settings: 20 μM ATP
# T1 construct: recombinant purified His or GST-tagged catalytic domain for each enzyme; made in house
# T1 sequence (P29597 897-1176 limits assumed): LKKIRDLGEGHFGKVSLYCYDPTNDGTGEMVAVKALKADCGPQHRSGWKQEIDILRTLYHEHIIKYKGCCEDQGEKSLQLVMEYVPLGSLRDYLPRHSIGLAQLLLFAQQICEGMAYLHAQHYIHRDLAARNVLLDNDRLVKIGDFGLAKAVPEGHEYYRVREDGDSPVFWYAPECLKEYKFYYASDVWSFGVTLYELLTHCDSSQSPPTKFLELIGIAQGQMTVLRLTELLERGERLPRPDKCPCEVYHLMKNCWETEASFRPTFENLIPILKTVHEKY
# Method: (§1) Example B-2: HTRF-Based Selectivity Assay
# (§2) The ability of compounds to inhibit the activity of JAK1, JAK2, JAK3 and TYK2 is measured using a recombinant purified His or GST-tagged catalytic domain for each enzyme (JAK1, JAK2 and TYK2 are generated in-house; JAK3 was purchased from Carna biosciences, Cat #08-046) in an HTRF format biochemical assay. The reactions employs a commercial peptide substrate from Cisbio (Cat #62TK0PEC). The basic assay protocol is as follows: first, 2.5 μL of diluted compounds (4×) in DMSO are dispensed into a 384-well Optiplate. Next, 2.5 μL of enzyme (final concentrations for enzymes are: TYK2—700 ng/mL, JAK1—80.6 ng/mL, JAK2—2.1 ng/mL and JAK3—171.8 ng/mL) is added and incubated at RT for 5-20 min. Finally, 5 μl of mixture of 2×ATP [Final concentration 20 μM for TYK2, 21.43 μM for JAK1, 14.7 μM for JAK2 and 2.12 μM for JAK3]+2× Substrate [Final concentration 217 nM for TYK2, 454.7 nM for JAK1, 200 nM for JAK2 and 257.4 nM for JAK3] is added to 384 well Optiplate. Composition of Kinase assay buffer used in the assay is as follows: HEPES 50 mM, EGTA 1 mM, MgCl2 10 mM, DTT 2 mM, Tween-20 0.01% and water. Then the plates are shaken and then incubated at 26.5° C. for 60 min.
# JAK3 kinase domain (JH1) = molecular target: T2, JAK3 kinase domain (JH1) (Homo sapiens, UniProt P52333); experiment: HTRF-based selectivity assay, JAK3 catalytic domain; format: biochemical; settings: 2.12 μM ATP
# T2 construct: recombinant purified His or GST-tagged catalytic domain for each enzyme; purchased Carna biosciences 08-046
# Method: as §1, §2
# [1] = system: TYK2 pseudokinase (JH2); IL-23-stimulated HEK-Blue IL-23 cells; experiment: HEK-Blue IL-23 reporter assay (STAT3-inducible SEAP) for profiling TYK2 pseudokinase (JH2) inhibition; format: cell-based; settings: 10 ng/mL human recombinant IL-23, SEAP readout, read-out: IL23 (TYK2 inhibitory activity, IC50)
# Summary of the method: (§3)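 Reporter cells were seeded in DMEM/10% heat-inactivated FBS and cultured 20-22 h at 37 °C. Compounds, serially diluted, were applied for 60 min before human recombinant IL-23 (10 ng/mL, 22-24 h) or IFNα (1 ng/mL, 16-18 h) was added. Secreted alkaline phosphatase was then quantified with QUANTI-Blue.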
# [2] = system: IL-2-stimulated HEK-Blue IL-2 reporter cells; experiment: HEK-Blue IL-2 reporter assay (STAT5-inducible SEAP) for determining selectivity; format: cell-based; settings: 4 ng/mL human recombinant IL-2, 24 hours
# Summary of the method: (§4)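 Cells were plated for 20-22 h, then pretreated with serially diluted compound for 60 min. They were stimulated for 24 h with 4 ng/mL human recombinant IL-2 or 50 ng/mL human recombinant IFNγ, and SEAP induction was read with QUANTI-Blue.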
# JAK1 kinase domain (JH1) = molecular target: T3, JAK1 kinase domain (JH1) (Homo sapiens, UniProt P23458); experiment: HTRF-based selectivity assay, JAK1 catalytic domain; format: biochemical; settings: 21.43 μM ATP, read-out: JAK-JHI (IC50)
# T3 construct: recombinant purified His or GST-tagged catalytic domain for each enzyme; made in house
# Method: as §1, §2
# [3] = system: IFNγ-stimulated HEK-Blue IFNγ reporter cells; experiment: HEK-Blue IFNγ reporter assay (STAT1-inducible SEAP) for determining selectivity; format: cell-based; settings: 50 ng/mL human recombinant IFNγ, 24 hours, read-out: IFN-γ SEAP selectivity assay IC50
# Summary of the method: as §4
# JAK2 kinase domain (JH1) = molecular target: T4, JAK2 kinase domain (JH1) (Homo sapiens, UniProt O60674); experiment: HTRF-based selectivity assay, JAK2 catalytic domain; format: biochemical; settings: 14.7 μM ATP
# T4 construct: recombinant purified His or GST-tagged catalytic domain for each enzyme; made in house
# Method: as §1, §2
# [4] = system: TYK2 pseudokinase (JH2); IFNα-stimulated HEK-Blue IFNα/β cells; experiment: HEK-Blue IFNα/β reporter assay (STAT1-inducible SEAP) for profiling TYK2 pseudokinase (JH2) inhibition; format: cell-based; settings: 1 ng/mL human recombinant IFNα, SEAP readout, read-out: IFNα (TYK2 inhibitory activity, IC50)
# Summary of the method: as §3
# T2 sequence (P52333 822-1111 limits assumed): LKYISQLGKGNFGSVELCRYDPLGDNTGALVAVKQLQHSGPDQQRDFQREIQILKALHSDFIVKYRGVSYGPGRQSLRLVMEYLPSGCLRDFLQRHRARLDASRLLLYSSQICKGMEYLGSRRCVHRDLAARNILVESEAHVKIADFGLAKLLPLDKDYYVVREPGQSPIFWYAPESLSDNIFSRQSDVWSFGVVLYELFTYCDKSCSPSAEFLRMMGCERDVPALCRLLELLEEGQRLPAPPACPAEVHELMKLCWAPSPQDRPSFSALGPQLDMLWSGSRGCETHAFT
# T4 sequence (O60674 849-1124 limits assumed): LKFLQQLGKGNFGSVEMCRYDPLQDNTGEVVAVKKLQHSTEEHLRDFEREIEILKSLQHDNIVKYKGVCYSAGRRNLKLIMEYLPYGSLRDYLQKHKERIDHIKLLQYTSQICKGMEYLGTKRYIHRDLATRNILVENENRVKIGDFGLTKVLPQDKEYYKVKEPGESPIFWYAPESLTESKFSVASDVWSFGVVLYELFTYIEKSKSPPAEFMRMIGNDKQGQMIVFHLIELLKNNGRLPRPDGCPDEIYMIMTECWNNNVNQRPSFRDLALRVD
# T3 sequence (P23458 875-1153 limits assumed): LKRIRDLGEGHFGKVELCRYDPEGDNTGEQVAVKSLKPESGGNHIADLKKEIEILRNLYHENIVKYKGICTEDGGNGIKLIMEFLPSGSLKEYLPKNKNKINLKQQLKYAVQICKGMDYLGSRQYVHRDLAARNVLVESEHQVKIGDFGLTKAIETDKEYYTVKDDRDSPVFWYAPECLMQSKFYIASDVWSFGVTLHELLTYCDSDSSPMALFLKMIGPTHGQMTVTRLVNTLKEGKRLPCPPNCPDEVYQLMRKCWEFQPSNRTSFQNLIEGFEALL
Structure (SMILES),IC50 (TYK2 kinase domain (JH1)),IC50 (JAK3 kinase domain (JH1)),IC50 [1],IC50 [2],IC50 (JAK1 kinase domain (JH1)),IC50 [3],IC50 (JAK2 kinase domain (JH1)),IC50 [4]
"[2H]C([2H])([2H])NC(=O)c1cnc(NC(=O)C2CC2)cc1Nc1cccc2c1OCc1cn(C)nc1-2 [Compound 6, 6-(cyclopropanecarboxamido)-N-(methyl-d3)-4-((2-methyl-2,4-dihydrochromeno[4,3-c]pyrazol-6-yl)amino)nicotinamide]",> 1000 nM,> 1000 nM,30 to 300 nM,> 1000 nM,> 1000 nM,> 1000 nM,> 1000 nM,30 to 300 nM
"[2H]C([2H])([2H])NC(=O)c1cnc(Nc2ccc(F)cn2)cc1Nc1cccc2c1OCc1cn(C)nc1-2 [Compound 7, 6-((5-fluoropyridin-2-yl)amino)-N-(methyl-d3)-4-((2-methyl-2,4-dihydrochromeno[4,3-c]pyrazol-6-yl)amino)nicotinamide]",> 1000 nM,> 1000 nM,30 to 300 nM,> 1000 nM,> 1000 nM,300 to 1000 nM,> 1000 nM,300 to 1000 nM
"Cn1cc2c(n1)-c1cccc(Nc3cc(Nc4ccc(F)cn4)nnc3C(N)=O)c1OC2 [Compound 8, 6-((5-fluoropyridin-2-yl)amino)-4-((2-methyl-2,4-dihydrochromeno[4,3-c]pyrazol-6-yl)amino)pyridazine-3-carboxamide]",> 1000 nM,> 1000 nM,< 30 nM,300 to 1000 nM,> 1000 nM,< 30 nM,300 to 1000 nM,30 to 300 nM
"[2H]C([2H])([2H])NC(=O)c1cnc(Nc2cc(C)nc(C)n2)cc1Nc1cccc2c1OCc1cn(C)nc1-2 [Compound 9, 6-((2,6-dimethylpyrimidin-4-yl)amino)-N-(methyl-d3)-4-((2-methyl-2,4-dihydrochromeno[4,3-c]pyrazol-6-yl)amino)nicotinamide]",> 1000 nM,> 1000 nM,< 30 nM,> 1000 nM,> 1000 nM,300 to 1000 nM,> 1000 nM,30 to 300 nM
"CNC(=O)c1nnc(Nc2ccc(F)cn2)cc1Nc1cccc2c1N(C)Cc1cn(C)nc1-2 [Compound 12, (4-((2,5-dimethyl-4,5-dihydro-2H-pyrazolo[4,3-c]quinolin-6-yl)amino)-6-((5-fluoropyridin-2-yl)amino)-N-methylpyridazine-3-carboxamide)]",> 1000 nM,> 1000 nM,< 30 nM,> 1000 nM,> 1000 nM,30 to 300 nM,> 1000 nM,< 30 nM
"[2H]C([2H])([2H])NC(=O)c1cnc(Nc2ccc(F)cn2)cc1Nc1cccc2c1N(C)Cc1cn(C)nc1-2 [Compound 13, 4-((2,5-dimethyl-4,5-dihydro-2H-pyrazolo[4,3-c]quinolin-6-yl)amino)-6-((5-fluoropyridin-2-yl)amino)-N-(methyl-d3)nicotinamide]",> 1000 nM,> 1000 nM,< 30 nM,> 1000 nM,> 1000 nM,300 to 1000 nM,> 1000 nM,< 30 nM
"[2H]C([2H])([2H])NC(=O)c1cnc(NC(=O)C2CC2)cc1Nc1cccc2c1N(C)Cc1cn(C)nc1-2 [Compound 14, 6-(cyclopropanecarboxamido)-4-((2,5-dimethyl-4,5-dihydro-2H-pyrazolo[4,3-c]quinolin-6-yl)amino)-N-(methyl-d3)nicotinamide]",> 1000 nM,> 1000 nM,< 30 nM,> 1000 nM,> 1000 nM,300 to 1000 nM,> 1000 nM,< 30 nM
"[2H]C([2H])([2H])NC(=O)c1nnc(NC(=O)C2CC2)cc1Nc1cccc2c1N(C)Cc1cn(C)nc1-2 [Compound 15, 6-(cyclopropanecarboxamido)-4-((2,5-dimethyl-4,5-dihydro-2H-pyrazolo[4,3-c]quinolin-6-yl)amino)-N-(methyl-d3)pyridazine-3-carboxamide]",> 1000 nM,> 1000 nM,< 30 nM,> 1000 nM,> 1000 nM,> 1000 nM,> 1000 nM,< 30 nM
"[2H]C([2H])([2H])NC(=O)c1cnc(Nc2cc(C)nc(C)n2)cc1Nc1cccc2c1N(C)Cc1cn(C)nc1-2 [Compound 16, 4-((2,5-dimethyl-4,5-dihydro-2H-pyrazolo[4,3-c]quinolin-6-yl)amino)-6-((2,6-dimethylpyrimidin-4-yl)amino)-N-(methyl-d3)nicotinamide]",> 1000 nM,> 1000 nM,< 30 nM,300 to 1000 nM,> 1000 nM,30 to 300 nM,> 1000 nM,< 30 nM
"CN1Cc2cn(C)nc2-c2cccc(Nc3cc(NC(=O)C4CC4)ncc3C(N)=O)c21 [Compound 17, 6-(cyclopropanecarboxamido)-4-((2,5-dimethyl-4,5-dihydro-2H-pyrazolo[4,3-c]quinolin-6-yl)amino)nicotinamide]",30 to 300 nM,< 30 nM,< 30 nM,< 30 nM,< 30 nM,< 30 nM,< 30 nM,< 30 nM
"[2H]C([2H])([2H])NC(=O)c1cnc(NC(=O)C2CC2)cc1Nc1cccc2c1N(C)Cc1cn(C([2H])([2H])[2H])nc1-2 [Compound 19, 6-(cyclopropanecarboxamido)-N-(methyl-d3)-4-((5-methyl-2-(methyl-d3)-4,5-dihydro-2H-pyrazolo[4,3-c]quinolin-6-yl)amino)nicotinamide]",> 1000 nM,> 1000 nM,< 30 nM,> 1000 nM,> 1000 nM,> 1000 nM,> 1000 nM,< 30 nM
"[2H]C([2H])([2H])NC(=O)c1nnc(NC(=O)C2CC2)cc1Nc1cccc2c1N(C)Cc1cn(C([2H])([2H])[2H])nc1-2 [Compound 20, 6-(cyclopropanecarboxamido)-N-(methyl-d3)-4-((5-methyl-2-(methyl-d3)-4,5-dihydro-2H-pyrazolo[4,3-c]quinolin-6-yl)amino)pyridazine-3-carboxamide]",> 1000 nM,> 1000 nM,< 30 nM,300 to 1000 nM,> 1000 nM,30 to 300 nM,> 1000 nM,< 30 nM
"[2H]C([2H])([2H])NC(=O)c1cnc(NC(=O)C2(O)CC2)cc1Nc1cccc2c1N(C)Cc1cn(C)nc1-2 [Compound 21, 4-((2,5-dimethyl-4,5-dihydro-2H-pyrazolo[4,3-c]quinolin-6-yl)amino)-6-(1-hydroxycyclopropane-1-carboxamido)-N-(methyl-d3)nicotinamide]",> 1000 nM,> 1000 nM,30 to 300 nM,> 1000 nM,> 1000 nM,> 1000 nM,> 1000 nM,30 to 300 nM
"[2H]C([2H])([2H])NC(=O)c1cnc(NC(=O)C2CC2)nc1Nc1cccc2c1N(C)Cc1cn(C)nc1-2 [Compound 22, 2-(cyclopropanecarboxamido)-4-((2,5-dimethyl-4,5-dihydro-2H-pyrazolo[4,3-c]quinolin-6-yl)amino)-N-(methyl-d3)pyrimidine-5-carboxamide]",> 1000 nM,> 1000 nM,< 30 nM,> 1000 nM,> 1000 nM,> 1000 nM,> 1000 nM,< 30 nM
